The NIST ThermoML archive (doi:10.1016/j.jct.2014.05.008)

Settings: 101.33 kPa, Liquid; for mass density: Vibrating tube method; for thermal conductivity: hot wire

CCCCn1cc[n+](C)c1.N#CN=C=[N-] [1-butyl-3-methylimidazolium dicyanamide]
Settings | mass density [kg/m3] | thermal conductivity [W/m/K]
293.2 K | 1064.5 | –
293.6 K | – | 0.167
303.2 K | 1057.5 | –
303.3 K | – | 0.166
313.2 K | 1051 | –
313.4 K | – | 0.163
323.2 K | 1045.1 | –
323.5 K | – | 0.163
333.2 K | 1040.6 | –
333.7 K | – | 0.153
343.2 K | 1035.7 | –
344.2 K | – | 0.15

CCCC[N+]1(C)CCCC1.N#CN=C=[N-] [1-butyl-1-methylpyrrolidinium dicyanamide]
Settings | mass density [kg/m3] | thermal conductivity [W/m/K]
293.2 K | 1018.3 | –
293.5 K | – | 0.155
303.2 K | 1011.8 | 0.155
313.2 K | 1006.1 | –
313.3 K | – | 0.153
323.2 K | 1000.6 | –
323.3 K | – | 0.151
333.2 K | 995.6 | 0.147
343.2 K | 991.3 | –
343.4 K | – | 0.142

CCn1cc[n+](C)c1.N#CN=C=[N-] [1-ethyl-3-methylimidazolium dicyanamide]
Settings | mass density [kg/m3] | thermal conductivity [W/m/K]
293.2 K | 1107.5 | –
293.4 K | – | 0.183
303.2 K | 1100.4 | –
303.3 K | – | 0.179
313.1 K | – | 0.178
313.2 K | 1093.5 | –
323 K | – | 0.181
323.2 K | 1087 | –
333.2 K | 1081 | 0.17
343.2 K | 1076.1 | –
343.4 K | – | 0.165
